Consider 33 molecules from ChEMBL document CHEMBL3112558 (Bioorg Med Chem Lett, 2014).

For data set [1], the system named is Human immunodeficiency virus 1. Briefly: Antiviral activity against HIV1 by cell based assay. The class given is functional, organism-based.
For the next data set, the target named is Protease (Human immunodeficiency virus 1, UniProt Q9YQ12). The data set is described as follows: Inhibition of HIV-1 protease.
The target in the next data set is Cytochrome P450 2C9 (Homo sapiens, UniProt P11712). Briefly: Inhibition of human CYP2C9.
A further data set concerns the target Cytochrome P450 2D6 (Homo sapiens, UniProt P10635). Briefly: Inhibition of human CYP2D6.
The target in another data set is T1, Cytochrome P450 1A2 (Homo sapiens, UniProt P05177).
T1 sequence (P05177 whole entry): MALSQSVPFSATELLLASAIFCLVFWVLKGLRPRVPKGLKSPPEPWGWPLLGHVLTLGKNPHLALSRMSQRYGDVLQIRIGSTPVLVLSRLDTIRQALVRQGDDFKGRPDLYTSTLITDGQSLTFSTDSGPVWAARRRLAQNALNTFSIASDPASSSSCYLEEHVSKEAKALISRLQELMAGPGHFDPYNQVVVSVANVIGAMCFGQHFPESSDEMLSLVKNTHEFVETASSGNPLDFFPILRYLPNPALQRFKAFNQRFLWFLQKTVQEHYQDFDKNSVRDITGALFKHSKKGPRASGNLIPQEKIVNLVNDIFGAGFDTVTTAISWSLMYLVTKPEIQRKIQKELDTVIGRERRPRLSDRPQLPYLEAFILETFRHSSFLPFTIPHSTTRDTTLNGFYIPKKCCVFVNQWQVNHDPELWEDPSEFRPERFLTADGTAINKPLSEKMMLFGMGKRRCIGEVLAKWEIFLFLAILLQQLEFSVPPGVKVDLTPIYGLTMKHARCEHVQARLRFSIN
The data set is described as follows: Inhibition of human CYP1A2.

The target in another data set is Cytochrome P450 2C19 (Homo sapiens, UniProt P33261). Briefly: Inhibition of human CYP2C19.
The next data set deals with Cytochrome P450 3A4 (Homo sapiens, UniProt P08684). The data set is described as follows: Inhibition of human CYP3A4-mdiated midazolam 1'-hydroxylase activity.
For another data set, the target named is CYP3A4 (Homo sapiens, UniProt P08684). The data set is described as follows: Ratio of compound IC50 to ritonavir IC50 for human CYP3A4-mdiated midazolam 1'-hydroxylase activity. The format is ADME. As to conditions: probe midazolam, read-out: Ratio IC50.

Molecules are shown by their SMILES.

Sequence of Protease (Q9YQ12 whole entry): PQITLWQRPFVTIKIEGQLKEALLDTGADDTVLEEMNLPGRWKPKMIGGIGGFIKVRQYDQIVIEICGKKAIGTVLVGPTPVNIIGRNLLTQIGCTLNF
Sequence of Cytochrome P450 2C9 (P11712 whole entry): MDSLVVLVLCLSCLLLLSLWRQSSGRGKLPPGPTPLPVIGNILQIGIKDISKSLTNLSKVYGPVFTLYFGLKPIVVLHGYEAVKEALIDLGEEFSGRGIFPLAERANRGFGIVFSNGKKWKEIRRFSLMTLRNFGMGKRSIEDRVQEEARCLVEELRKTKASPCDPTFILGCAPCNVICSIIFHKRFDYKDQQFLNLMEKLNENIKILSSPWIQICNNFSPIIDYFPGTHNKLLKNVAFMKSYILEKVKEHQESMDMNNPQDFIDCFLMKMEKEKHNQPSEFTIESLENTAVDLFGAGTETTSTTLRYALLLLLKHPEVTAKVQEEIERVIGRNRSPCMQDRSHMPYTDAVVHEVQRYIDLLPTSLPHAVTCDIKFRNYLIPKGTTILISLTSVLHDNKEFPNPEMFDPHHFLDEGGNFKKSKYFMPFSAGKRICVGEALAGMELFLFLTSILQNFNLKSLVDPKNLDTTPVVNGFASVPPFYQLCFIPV
Sequence of Cytochrome P450 3A4 (P08684 whole entry): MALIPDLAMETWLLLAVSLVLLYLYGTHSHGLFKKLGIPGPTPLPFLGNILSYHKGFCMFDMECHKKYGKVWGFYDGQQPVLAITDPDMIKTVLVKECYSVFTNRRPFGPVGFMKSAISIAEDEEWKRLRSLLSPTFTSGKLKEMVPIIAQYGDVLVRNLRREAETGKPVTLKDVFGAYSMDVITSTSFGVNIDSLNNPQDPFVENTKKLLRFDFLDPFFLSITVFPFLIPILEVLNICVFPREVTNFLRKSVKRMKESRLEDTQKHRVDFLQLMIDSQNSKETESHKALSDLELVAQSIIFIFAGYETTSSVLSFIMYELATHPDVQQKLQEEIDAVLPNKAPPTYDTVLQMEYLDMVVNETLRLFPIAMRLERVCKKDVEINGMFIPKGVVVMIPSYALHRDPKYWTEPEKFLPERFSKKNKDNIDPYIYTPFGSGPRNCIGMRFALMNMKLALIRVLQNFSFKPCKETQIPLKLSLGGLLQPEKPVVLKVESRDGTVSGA
Sequence of Cytochrome P450 2C19 (P33261 whole entry): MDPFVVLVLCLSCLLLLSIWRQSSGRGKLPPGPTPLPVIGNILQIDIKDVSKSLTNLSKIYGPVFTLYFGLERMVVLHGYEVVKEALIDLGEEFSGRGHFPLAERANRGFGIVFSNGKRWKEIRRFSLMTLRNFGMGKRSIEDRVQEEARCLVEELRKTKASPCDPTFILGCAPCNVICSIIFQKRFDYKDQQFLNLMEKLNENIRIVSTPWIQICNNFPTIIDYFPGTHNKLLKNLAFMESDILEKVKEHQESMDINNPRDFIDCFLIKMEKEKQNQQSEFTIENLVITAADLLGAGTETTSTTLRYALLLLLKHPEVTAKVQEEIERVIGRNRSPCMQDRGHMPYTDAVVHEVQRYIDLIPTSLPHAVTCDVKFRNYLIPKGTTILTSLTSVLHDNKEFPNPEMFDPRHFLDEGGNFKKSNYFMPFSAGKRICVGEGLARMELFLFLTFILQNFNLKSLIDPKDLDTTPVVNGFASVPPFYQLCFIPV
Sequence of Cytochrome P450 2D6 (P10635 whole entry): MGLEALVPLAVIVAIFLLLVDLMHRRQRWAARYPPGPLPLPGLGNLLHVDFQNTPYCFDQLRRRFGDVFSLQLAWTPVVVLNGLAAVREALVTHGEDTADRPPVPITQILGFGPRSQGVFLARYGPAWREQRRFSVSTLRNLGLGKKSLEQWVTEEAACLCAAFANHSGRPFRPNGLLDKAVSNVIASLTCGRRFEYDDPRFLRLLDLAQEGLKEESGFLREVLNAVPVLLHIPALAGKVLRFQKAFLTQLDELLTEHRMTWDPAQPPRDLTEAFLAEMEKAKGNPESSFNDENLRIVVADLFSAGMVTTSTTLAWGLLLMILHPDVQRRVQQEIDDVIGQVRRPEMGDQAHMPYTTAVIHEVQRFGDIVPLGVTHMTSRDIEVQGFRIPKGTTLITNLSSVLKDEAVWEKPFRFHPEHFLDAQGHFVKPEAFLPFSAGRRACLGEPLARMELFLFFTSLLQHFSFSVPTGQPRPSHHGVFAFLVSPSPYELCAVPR
Sequence of CYP3A4 (P08684 whole entry): as the sequence (P08684 whole entry) above

In the case of `O=C(N[C@@H](CC[C@@H](Cc1ccccc1)NC(=O)[C@H](CO)NC(=O)N(Cc1cncs1)C1CC1)Cc1ccccc1)OCc1cncs1`, the EC50 (as a rule, the concentration at which the effect is half-maximal) in data set [1] is greater than 30 µM. Besides, the IC50 (as a rule, the point on the concentration scale where inhibition reaches its midpoint) against Protease was greater than 30 µM.
`O=C(N[C@H](CC[C@H](Cc1ccccc1)NC(=O)[C@H](CO)NC(=O)N(Cc1cncs1)C1CC1)Cc1ccccc1)OCc1cncs1` had an EC50 in data set [1] of 20 µM. For the same molecule, the IC50 on Protease came out at 19.3 µM.
Turning to `CC(C)c1nc(CN(C)C(=O)N[C@@H](CCN)C(=O)N[C@H](CC[C@H](Cc2ccccc2)NC(=O)OCc2cncs2)Cc2ccccc2)cs1`, the IC50 against Cytochrome P450 2C9 was greater than 25 µM; against Cytochrome P450 2D6 it was 0.8 µM; on Cytochrome P450 1A2, greater than 25 µM; against Cytochrome P450 2C19, greater than 25 µM; against Protease, greater than 30 µM. The same molecule displayed an EC50 in data set [1] greater than 30 µM.
In data set [1], `CC(C)c1nc(CN(C)C(=O)N[C@@H](CC(N)=O)C(=O)N[C@H](CC[C@H](Cc2ccccc2)NC(=O)OCc2cncs2)Cc2ccccc2)cs1` had an EC50 of 1 µM. The IC50 against Protease was determined as 0.143 µM.
Regarding `CC(C)c1nc(CN(C)C(=O)N[C@@H](CCNS(C)(=O)=O)C(=O)N[C@H](CC[C@H](Cc2ccccc2)NC(=O)OCc2cncs2)Cc2ccccc2)cs1`, in data set [1], the EC50 is greater than 30 µM. The IC50 against Protease was 8 µM.
On the same counts, the results for `CC(=O)NCC[C@H](NC(=O)N(C)Cc1csc(C(C)C)n1)C(=O)N[C@H](CC[C@H](Cc1ccccc1)NC(=O)OCc1cncs1)Cc1ccccc1` are 18 µM and 2 µM.
`CC(C)[C@H](NC(=O)N(C)Cc1cscn1)C(=O)N[C@H](CC[C@H](Cc1ccccc1)NC(=O)OCc1cncs1)Cc1ccccc1`: the figures for the IC50 against Cytochrome P450 3A4 and at Protease were 0.14 µM and 0.242 µM, respectively. In data set [1], this molecule returned an EC50 of 0.8 µM.
As to `CC(C)c1nc(CN(C)C(=O)N[C@@H](CO)C(=O)N[C@@H](CC[C@@H](Cc2ccccc2)NC(=O)OCc2cncs2)Cc2ccccc2)cs1`, the EC50 in data set [1] is greater than 30 µM. The molecule further had an IC50 on Protease greater than 30 µM.
In data set [1], `CC(C)c1nc(CN(C)C(=O)N[C@@H](Cc2c[nH]cn2)C(=O)N[C@H](CC[C@H](Cc2ccccc2)NC(=O)OCc2cncs2)Cc2ccccc2)cs1` had an EC50 greater than 10 µM. At Protease, the IC50 was determined as 3 µM.
The molecule `CN(Cc1cncs1)C(=O)N[C@@H](CO)C(=O)N[C@H](CC[C@H](Cc1ccccc1)NC(=O)OCc1cncs1)Cc1ccccc1` displayed an EC50 in data set [1] of 12 µM. In addition, the IC50 against Protease is 4.3 µM.
As for `CC(C)c1nc(CN(C)C(=O)N[C@@H](CCN2CCOCC2)C(=O)N[C@H](CC[C@H](Cc2ccccc2)NC(=O)OCc2cncs2)Cc2ccccc2)cs1` [COBICISTAT], in data set [1], the EC50 is greater than 30 µM. For the same molecule, the IC50 against Cytochrome P450 2D6 is 9.2 µM; on Cytochrome P450 1A2 it was greater than 25 µM; against Cytochrome P450 2C19 it was greater than 25 µM; against Protease, greater than 30 µM.
In turn, `CC(C)c1nc(CN(C)C(=O)N[C@@H](COCc2ccccc2)C(=O)N[C@H](CC[C@H](Cc2ccccc2)NC(=O)OCc2cncs2)Cc2ccccc2)cs1` gave an EC50 in data set [1] greater than 30 µM. The IC50 at Protease amounted to 11.8 µM.
As for `CN(Cc1cncs1)C(=O)NCCC(=O)N[C@H](CC[C@H](Cc1ccccc1)NC(=O)OCc1cncs1)Cc1ccccc1`, on Cytochrome P450 3A4, the IC50 was determined as 0.13 µM. Moreover, in data set [1], the midpoint of the response, the EC50, lay at 2.5 µM.
`CC(C)c1nc(CN(C)C(=O)N[C@@H](CCCCN)C(=O)N[C@H](CC[C@H](Cc2ccccc2)NC(=O)OCc2cncs2)Cc2ccccc2)cs1` had an EC50 in data set [1] greater than 30 µM. For the same molecule, the IC50 on Protease was greater than 30 µM.
On to `CC(C)c1nc(CN(C)C(=O)N[C@@H](Cc2cn(C)cn2)C(=O)N[C@H](CC[C@H](Cc2ccccc2)NC(=O)OCc2cncs2)Cc2ccccc2)cs1`, for which the EC50 in data set [1] is greater than 30 µM. The same molecule yielded an IC50 against Protease greater than 30 µM.
In data set [1], `CC(C)c1nc(CN(C)C(=O)N[C@@H](CO)C(=O)N[C@H](CC[C@H](Cc2ccccc2)NC(=O)OCc2cncs2)Cc2ccccc2)cs1` had an EC50 of 1.5 µM. Further, at Protease, 0.05 µM corresponded to half-maximal inhibition (IC50).
In the case of `CC(=O)NCC[C@H](NC(=O)N(C)Cc1csc(C(C)C)n1)C(=O)N[C@@H](CC[C@@H](Cc1ccccc1)NC(=O)OCc1cncs1)Cc1ccccc1`, the IC50 was 15.5 µM against Cytochrome P450 2C9; 0.8 µM against Cytochrome P450 2D6; greater than 25 µM against Cytochrome P450 1A2; greater than 25 µM against Cytochrome P450 2C19; greater than 30 µM on Protease. The molecule also displayed an EC50 in data set [1] greater than 30 µM.
`CC(C)c1nc(CN(C)C(=O)NC(CN(C)C)C(=O)N[C@H](CC[C@H](Cc2ccccc2)NC(=O)OCc2cncs2)Cc2ccccc2)cs1` (some centres not stated): in data set [1], the 50% effective concentration (EC50) is 3 µM. This counts as single-digit micromolar.
In data set [1], `CC(C)c1nc(CN(C)C(=O)N[C@@H](Cn2cccn2)C(=O)N[C@H](CC[C@H](Cc2ccccc2)NC(=O)OCc2cncs2)Cc2ccccc2)cs1` displayed an EC50 of 5 µM. This molecule showed an IC50 against Protease of 0.03 µM.
For `CC(C)[C@H](NC(=O)N(C)Cc1cscn1)C(=O)N[C@@H](CC[C@@H](Cc1ccccc1)NC(=O)OCc1cncs1)Cc1ccccc1`, the IC50 against Cytochrome P450 3A4 was 0.12 µM; against Protease it was greater than 30 µM. The EC50 in data set [1] was greater than 30 µM.
As for `CC(C)c1nc(CN(C)C(=O)N[C@H](C(=O)N[C@@H](Cc2ccccc2)C[C@H](O)[C@H](Cc2ccccc2)NC(=O)OCc2cncs2)C(C)C)cs1` [RITONAVIR], the EC50 in data set [1] was found to be 0.05 µM.
Take `CC(C)c1nc(CN(C(=O)N[C@@H](CO)C(=O)N[C@H](CC[C@H](Cc2ccccc2)NC(=O)OCc2cncs2)Cc2ccccc2)C2CC2)cs1`: a half-maximal response in data set [1] (EC50) required 2.5 µM. On Protease, this molecule yielded an IC50 of 1.41 µM.
Turning to `Cc1nc(CN(C)C(=O)N[C@H](C(=O)N[C@H](CC[C@H](Cc2ccccc2)NC(=O)OCc2cncs2)Cc2ccccc2)C(C)C)cs1`, the EC50 in data set [1] was 0.4 µM. The midpoint of inhibition on Protease, the IC50, lay at 0.035 µM.
For the molecule `CC(C)c1nc(CN(C)C(=O)N[C@@H](Cc2cnc[nH]2)C(=O)N[C@@H](CC[C@@H](Cc2ccccc2)NC(=O)OCc2cncs2)Cc2ccccc2)cs1`, the IC50 against Cytochrome P450 2C9 is 4.7 µM; at Cytochrome P450 2D6, 0.4 µM; at Cytochrome P450 1A2 it was 15 µM; against Cytochrome P450 2C19, 2.2 µM; at Protease, greater than 30 µM. This molecule also gave an EC50 in data set [1] greater than 30 µM.
Turning to `CC(C)c1nc(CN(C)C(=O)N[C@@H](CCO)C(=O)N[C@H](CC[C@H](Cc2ccccc2)NC(=O)OCc2cncs2)Cc2ccccc2)cs1`, in data set [1], the EC50 is 2.7 µM. Further, the IC50 against Protease turned out to be 0.039 µM.
For the molecule `CC(C)[C@H](NC(=O)N(Cc1cscn1)C1CC1)C(=O)N[C@H](CC[C@H](Cc1ccccc1)NC(=O)OCc1cncs1)Cc1ccccc1`, the IC50 against Cytochrome P450 3A4 is less than 0.1 µM; on Protease, 3.59 µM. This molecule displayed an EC50 in data set [1] of 4 µM. Moreover, the selectivity ratio at CYP3A4 amounted to 80.
`CC(C)[C@H](NC(=O)N(C)Cc1cncs1)C(=O)N[C@H](CC[C@H](Cc1ccccc1)NC(=O)OCc1cncs1)Cc1ccccc1`: the IC50 against Cytochrome P450 3A4 stood at 0.08 µM; at Protease it was 0.386 µM. The EC50 in data set [1] came out at 0.7 µM.
As for `COC[C@H](NC(=O)N(C)Cc1csc(C(C)C)n1)C(=O)N[C@H](CC[C@H](Cc1ccccc1)NC(=O)OCc1cncs1)Cc1ccccc1`, the EC50 in data set [1] turned out to be 0.65 µM.
Regarding `CNCC[C@H](NC(=O)N(C)Cc1csc(C(C)C)n1)C(=O)N[C@H](CC[C@H](Cc1ccccc1)NC(=O)OCc1cncs1)Cc1ccccc1`, in data set [1], the EC50 is greater than 30 µM. Besides, at Protease, the IC50 is greater than 30 µM.
`CC(C)c1nc(CN(C)C(=O)N[C@@H](CCN(C)C)C(=O)N[C@H](CC[C@H](Cc2ccccc2)NC(=O)OCc2cncs2)Cc2ccccc2)cs1` returned an EC50 in data set [1] of 20 µM. This molecule showed an IC50 against Protease greater than 30 µM.
`CC(C)c1nc(CN(C)C(=O)N[C@H](CCN2CCOCC2)C(=O)N[C@H](CC[C@H](Cc2ccccc2)NC(=O)OCc2cncs2)Cc2ccccc2)cs1` yielded an EC50 in data set [1] greater than 30 µM. Further, the IC50 on Cytochrome P450 2D6 is 3.1 µM; on Cytochrome P450 1A2, greater than 25 µM; on Cytochrome P450 2C19, 1.3 µM; at Protease, greater than 30 µM.
In turn, `CC(C)c1nc(CN(C)C(=O)N[C@@H](CC(=O)O)C(=O)N[C@H](CC[C@H](Cc2ccccc2)NC(=O)OCc2cncs2)Cc2ccccc2)cs1` came in with an EC50 in data set [1] of 10 µM. On Protease, the IC50 is 0.01 µM.
For the molecule `CC(C)c1nc(CN(C(=O)N[C@H](C(=O)N[C@H](CC[C@H](Cc2ccccc2)NC(=O)OCc2cncs2)Cc2ccccc2)C(C)C)C2CC2)cs1`, the IC50 on Cytochrome P450 3A4 was found to be 0.21 µM; against Protease, 0.55 µM. In addition, the EC50 in data set [1] came to 0.75 µM.
